The text below walks through data of patent publication US20110039314A1, “Composition for Catalytic Amide Production and Uses Thereof” (LOYOLA UNIVERSITY OF CHICAGO, priority 2009, published 2011).

The target in series [1] is Co-type nitrile hydratase from Pseudonocardia thermophile JCM 3095 (PtNHase) (Pseudonocardia thermophila, UniProt Q7SID2+Q7SID3). Conditions: previously reported value (ref. 21); cited from earlier work.
Series [2] concerns the target Fe-type nitrile hydratase from Comamonas testosteroni Ni1 (CtNHase) (Comamonas testosteroni, UniProt J9PBS0+J9PBS1). Conditions: previously reported value (ref. 34); cited from earlier work.
Substrate in series [3]: N#Cc1ccccc1
The series is described as follows: purified protein, by the assay type. Conditions: other: benzonitrile hydrolysis, solution, pH 7.6, 25° C.

Take `N#Cc1ccccc1` [benzonitrile]: in series [1], the Km was 19 µM and the catalytic constant (kcat) was 120 s⁻¹.

With `N#CCCCCC(=O)O` [cyanovaleric acid], in series [2], the Michaelis constant (Km) was 3200 µM.

B1: Co-type nitrile hydratase from Pseudonocardia thermophile JCM 3095 (PtNHase) (Pseudonocardia thermophila) (protein)
chain 1: MTENILRKSDEEIQKEITARVKALESMLIEQGILTTSMIDRMAEIYENEVGPHLGAKVVVKAWTDPEFKKRLLADGTEACKELGIGGLQGEDMMWVENTDEVHHVVVCTLCSCYPWPVLGLPPNWFKEPQYRSRVVREPRQLLKEEFGFEVPPSKEIKVWDSSSEMRFVVLPQRPAGTDGWSEEELATLVTRESMIGVEPAKAV
chain 2: MNGVYDVGGTDGLGPINRPADEPVFRAEWEKVAFAMFPATFRAGFMGLDEFRFGIEQMNPAEYLESPYYWHWIRTYIHHGVRTGKIDLEELERRTQYYRENPDAPLPEHEQKPELIEFVNQAVYGGLPASREVDRPPKFKEGDVVRFSTASPKGHARRARYVRGKTGTVVKHHGAYIYPDTAGNGLGECPEHLYTVRFTAQELWGPEGDPNSSVYYDCWEPYIELVDTKAAAA
Regarding B1, in series [3], the Km is 18 µM and the kcat came out at 123 s⁻¹.

As a reminder, the Km is the concentration of substrate that gives half-maximal velocity. As a reminder, the kcat is the maximal rate divided by the concentration of active sites.
